# Data reported in patent US8354398B2, “Substituted isoxazole compounds” (Bristol-Myers Squibb Company, priority 2009, dated 2013).
# Counter-ions that a name gives are not always drawn.
# What was measured:
# [1] = molecular target: T1, S1P1 (Homo sapiens, UniProt P21453); test: S1P1 Binding Assay (33P-S1P ligand competition, membranes from CHO cells); set-up: expressed in transfected cells; host or cells: CHO cells; conditions: membranes of CHO cells expressing human S1P1; 0.03 nM 33P-S1P; 60 min room temperature
# T1 sequence (P21453 whole entry): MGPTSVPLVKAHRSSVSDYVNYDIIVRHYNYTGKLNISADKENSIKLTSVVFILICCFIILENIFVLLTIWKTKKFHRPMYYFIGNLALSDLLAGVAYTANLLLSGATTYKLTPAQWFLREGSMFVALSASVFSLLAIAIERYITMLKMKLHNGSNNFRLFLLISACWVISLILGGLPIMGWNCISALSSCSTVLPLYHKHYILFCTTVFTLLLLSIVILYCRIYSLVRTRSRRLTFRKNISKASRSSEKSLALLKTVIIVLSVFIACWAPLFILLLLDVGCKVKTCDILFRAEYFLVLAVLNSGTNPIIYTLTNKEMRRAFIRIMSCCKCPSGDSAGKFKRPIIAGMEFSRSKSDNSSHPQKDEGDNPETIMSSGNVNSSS
# Description: Membranes were prepared from CHO cells expressing human S1P1. Cells were dissociated in buffer containing 20 mM HEPES, pH 7.5, 50 mM NaCl, 2 mM EDTA and Protease Inhibitor cocktail (Roche), and disrupted on ice using the Polytron homogenizer. The homogenate was centrifuged at 20,000 rpm (48,000 g) and the supernatant was discarded. The membrane pellets were resuspended in buffer containing 50 mM HEPES, pH 7.5, 100 mM NaCl, 1 mM MgCl2, 2 mM EDTA and stored in aliquots at −80° C. after protein concentration determination.
# Membranes (2 μg/well) and 0.03 nM final concentration of ^33P-S1P ligand (1 mCi/ml, American Radiolabeled Chemicals) were added to the compound plates. Binding was performed for 60 min at room temperature, terminated by collecting the membranes onto GF/B filter plates, and radioactivity was measured by TOPCOUNT®. The competition data of the test compounds over a range of concentrations was plotted as percentage inhibition of radioligand specific binding. The IC50 is defined as the concentration of competing ligand needed to reduce specific binding by 50%.
# Compounds of the present invention and Comparative Compound A were tested in the S1P1 binding assay described hereinabove and the results rounded to two digits, shown in Table A were obtained. In some instances, the value is an average of multiple experiments where N is the number of experiments conducted that provided satisfactory dose response curves. When more than one batch of an example was tested, the value presented is from the batch which allowed a comparison of GTPγS S1P1 and GTPγS S1P3 in Method A (Data shown in Table B). Data was not averaged across different batches of an example compound.
# [2] = molecular target: T1, S1P1; test: Method A: Receptor [35S] GTPγS Binding Assay, membranes from S1P1/CHO cells; assay type: biochemical; set-up: expressed in transfected cells; host or cells: S1P1/CHO cells; conditions: for EC50: Method A, S1P1/CHO cell membranes; for GTPγS S1P3/S1P1 (Method A): ratio of GTPγS S1P3 EC50 to GTPγS S1P1 EC50, Method A
# Description: (§1) Compounds were loaded in a 384 Falcon v-bottom plate (0.5 μl/well in a 3-fold dilution). Membranes prepared from S1P1/CHO cells or EDG3-Ga15-bla HEK293T cells were added to the compound plate (40 μl/well, final protein […]) with MULTIDROP®. [^35S]GTP (1250 Ci/mmol, Perkin Elmer) was diluted in assay buffer: 20 mM HEPES, pH7.5, 10 mM MgCl2, 150 mM NaCl, 1 mM EGTA, 1 mM DTT, 10 μM GDP, 0.1% fatty acid free BSA, and 10 mg/ml Saponin to 0.4 nM. 40 μl of the [^35S] GTP solution was added to the compound plate with a final concentration of 0.2 nM. The reaction was kept at room temperature for 45 min. At the end of incubation, all the mixtures in the compound plate were transferred to a 384 well FB filter plates via GPCR robot system. The filter plate was washed with water 4 times by using the modified manifold Embla plate washer and dried at 60° C. for 45 min. 30 μl of MicroScint 20 scintillation fluid was added to each well for counting at Packard TOPCOUNT®. EC50 is defined as the agonist concentration that corresponds to 50% of the Ymax (maximal response) obtained for each individual compound tested.
# (§2) Compounds of the present invention and Comparative Compound A were tested in the Receptor [^35S] GTPγS Binding Assays (Method A) and Receptor [35S] In some instances, the value is an average of multiple experiments where N is the number of experiments conducted that provided satisfactory dose response curves. When more than one batch of an example was tested, the value presented is from a batch which allowed a comparison of GTPγS S1P1 and GTPγS S1P3 in which the most number of experiments were performed. Preferably, the same batch was examined in Method A and Method B. Data was not averaged across different batches of an example compound.
# [3] = molecular target: T1, S1P1; test: Method B: Receptor [35S] GTPγS SPA Binding Assay, membranes from S1P1 transfected CHO cells; assay type: biochemical; set-up: expressed in transfected cells; host or cells: S1P1/CHO cells; conditions: Method B SPA; S1P1 transfected CHO cell membranes; NC = a satisfactory dose response curve was not obtained
# Description: Membranes prepared from S1P1 or S1P3 transfected CHO cells (2 μg protein) were incubated in 96-well white plates (CORNING® 3693) with test compounds diluted in DMSO, in 50 μl of reaction mixture containing 7.5 μl WGA-PVT beads (20 mg/ml), and 5 μM GDP, 20 mM HEPES pH 7.4, 100 mM NaCl, 1 mM EDTA, 5 mM MgCl2, 10 μg/ml saponin, 0.1% BSA, and 1 μM leupeptin. The assay was initiated with the addition of 25 μl of 0.2 nM [^35S]-GTPγS (1250 Ci/mmol; NEN) in assay buffer. After 90 min incubation at room temperature, spin the plate at 1000 rpm for 5 min. The bound radionuclides were measured at TOPCOUNT®, expressed as % response relative to S1P (1 μM) activation. Data was analyzed using the four parameter logistic equation in Excel. The four parameters in the equation, Y=A+((B−A)/(1+((EC50/X)^D))), are described as following: A is the Y value (agonist activity) at the bottom plateau; B is the Y value at the top plateau; EC50 is the X value (agonist concentration) when the response is halfway between bottom and top; D is Hill coefficient. Curves were not generated for compounds having Ymax values were below 50%.
# as §2
# [4] = molecular target: S1P3 (Homo sapiens, UniProt Q99500); test: Method A: Receptor [35S] GTPγS Binding Assay, membranes from EDG3-Ga15-bla HEK293T cells; assay type: biochemical; set-up: expressed in transfected cells; host or cells: EDG3-Ga15-bla HEK293T cells; conditions: EDG3-Ga15-bla HEK293T cell membranes
# Chain of S1P3 (Q99500 whole entry): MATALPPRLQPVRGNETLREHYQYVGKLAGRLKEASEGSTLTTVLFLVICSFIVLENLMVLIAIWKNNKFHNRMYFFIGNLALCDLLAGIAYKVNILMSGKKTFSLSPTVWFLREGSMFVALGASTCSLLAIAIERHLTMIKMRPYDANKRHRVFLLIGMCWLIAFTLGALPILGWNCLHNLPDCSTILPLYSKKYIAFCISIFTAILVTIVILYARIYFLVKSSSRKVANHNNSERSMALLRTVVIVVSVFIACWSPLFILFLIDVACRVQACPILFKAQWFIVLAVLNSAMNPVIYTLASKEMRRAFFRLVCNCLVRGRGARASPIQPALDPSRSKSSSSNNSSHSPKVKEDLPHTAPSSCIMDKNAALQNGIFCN
# Description: as §1, §2
SMILES,IC50 [1] [nM],EC50 [2] [nM],GTPγS S1P3/S1P1 (Method A) [2],EC50 [3] [nM],EC50 [4] [nM]
"CCCCc1c(-c2nc(-c3ccc(CN4CC(C(=O)O)C4)cc3)no2)noc1-c1ccccc1 [Example 3, 1-(4-(5-(4-Butyl-5-phenylisoxazol-3-yl)-1,2,4-oxadiazol-3-yl)benzyl)-azetidine-3-carboxylic acid]",0.065,0.26,"1,300",0.16,330
"CC(C)Cc1c(-c2nc(-c3ccc(CN4CC(C(=O)O)C4)cc3)no2)noc1-c1ccccc1 [Example 4, 1-(4-(5-(4-Isobutyl-5-phenylisoxazol-3-yl)-1,2,4-oxadiazol-3-yl)benzyl)-azetidine-3-carboxylic acid]",0.17,0.7,670,0.58,470
"CCc1c(-c2nc(-c3ccc(CN4CC(C(=O)O)C4)c(Br)c3)no2)noc1-c1ccccc1 [Example 5, 1-(2-Bromo-4-(5-(4-ethyl-5-phenylisoxazol-3-yl)-1,2,4-oxadiazol-3-yl)benzyl)azetidine-3-carboxylic acid]",0.14,5.3,320,–,1700
"O=C(O)C1CN(Cc2ccc(-c3noc(-c4noc(-c5ccccc5)c4C4CC4)n3)cc2)C1 [Example 6, 1-(4-(5-(4-Cyclopropyl-5-phenylisoxazol-3-yl)-1,2,4-oxadiazol-3-yl)benzyl)-azetidine-3-carboxylic acid, 2,2,2-trifluoroacetic acid salt]",0.043,5.6,75,0.22,420
"O=C(O)C1CN(Cc2ccc(-c3noc(-c4noc(-c5ccccc5)c4CCC(F)(F)F)n3)cc2)C1 [Example 8, 1-(4-(5-(5-Phenyl-4-(3,3,3-trifluoropropyl)isoxazol-3-yl)-1,2,4-oxadiazol-3-yl)benzyl)azetidine-3-carboxylic acid, 2,2,2-trifluoroacetic acid salt]",0.09,3.7,140,–,520
"COC(=O)c1c(-c2ccccc2)noc1-c1nc(-c2ccc(CN3CC(C(=O)O)C3)cc2)no1 [Example 13, 1-(4-(5-(4-(Methoxycarbonyl)-3-phenylisoxazol-5-yl)-1,2,4-oxadiazol-3-yl)benzyl)azetidine-3-carboxylic acid, 2,2,2-trifluoroacetic acid salt]",0.094,1.9,578,–,1100
"O=C(NCC(F)(F)F)c1c(-c2ccccc2)noc1-c1nc(-c2ccc(CN3CC(C(=O)O)C3)cc2)no1 [Example 15, 1-(4-(5-(3-Phenyl-4-(2,2,2-trifluoroethylcarbamoyl)isoxazol-5-yl)-1,2,4-oxadiazol-3-yl)benzyl)azetidine-3-carboxylic acid, 2,2,2-trifluoroacetic acid salt]",6.5,29,175,–,5100
"O=C(O)c1c(-c2ccccc2)noc1-c1nc(-c2ccc(CN3CC(C(=O)O)C3)cc2)no1 [Example 16, 5-(3-(4-((3-Carboxyazetidin-1-yl)methyl)phenyl)-1,2,4-oxadiazol-5-yl)-3-phenylisoxazole-4-carboxylic acid]",40,112,18,–,2050
"CC(C)Cc1onc(-c2nc(-c3ccc(CN4CC(C(=O)O)C4)cc3)no2)c1C(F)(F)F [Example 20, 1-(4-(5-(5-Isobutyl-4-(trifluoromethyl)isoxazol-3-yl)-1,2,4-oxadiazol-3-yl)benzyl)-azetidine-3-carboxylic acid]",0.15,0.56,"3,900",–,2200
"O=C(O)C1CN(Cc2ccc(-c3noc(-c4onc(-c5ccccc5)c4C(F)(F)F)n3)cc2F)C1 [Example 21, 1-(2-Fluoro-4-(5-(3-phenyl-4-(trifluoromethyl)isoxazol-5-yl)-1,2,4-oxadiazol-3-yl)benzyl)azetidine-3-carboxylic acid]",0.32,0.32,"3,500",–,1100
"Cc1cc(-c2noc(-c3onc(-c4ccccc4)c3C(F)(F)F)n2)ccc1CN1CC(C(=O)O)C1 [Example 22, 1-(2-methyl-4-(5-(3-phenyl-4-(trifluoromethyl)isoxazol-5-yl)-1,2,4-oxadiazol-3-yl)benzyl)azetidine-3-carboxylic acid]",0.55,0.52,"3,000",–,1600
"O=C(O)C1CN(Cc2ccc(-c3noc(-c4onc(-c5ccccc5)c4C(F)(F)F)n3)c(Cl)c2)C1 [Example 23, 1-(3-chloro-4-(5-(3-phenyl-4-(trifluoromethyl)isoxazol-5-yl)-1,2,4-oxadiazol-3-yl)benzyl)azetidine-3-carboxylic acid]",0.26,1.9,"4,400",–,8300
"O=C(O)C1CN(Cc2ccc(-c3noc(-c4onc(-c5ccccc5)c4C(F)(F)F)n3)c(C(F)(F)F)c2)C1 [Example 24, 1-(4-(5-(3-phenyl-4-(trifluoromethyl)isoxazol-5-yl)-1,2,4-oxadiazol-3-yl)-3-(trifluoromethyl)benzyl)azetidine-3-carboxylic acid]",1.56,6.4,"4,900",–,31000
"O=C(O)C1CN(Cc2ccc(-c3noc(-c4noc(-c5ccccc5)c4-c4ccccc4)n3)c(C(F)(F)F)c2)C1 [Example 25, 1-(4-(5-(4,5-Diphenylisoxazol-3-yl)-1,2,4-oxadiazol-3-yl)-3-(trifluoromethyl)benzyl)azetidine-3-carboxylic acid, 2,2,2-trifluoroacetic acid salt]",0.44,9.2,371,–,3400
